Like-named read-outs stand apart in the source and are kept apart here.
How the values were obtained:
[1] = test system: blast cells, LSCs and HSPCs of leukemic Pten:β-cat^Act mice; assay type: in vivo
Description: Leukemic mice were treated with vehicle, chemotherapy, [Low]DXR (5×0.5 mg/kg), clinical DXR (1×20 mg/kg), or chemotherapy+[Low]DXR as described in FIG. S2.
Average frequency of each population (n≥6 per group) is shown.
Absolute number/femur±SD of each population (n≥6 per group) is shown.
At 10 days post-treatment, BM was analyzed by flow cytometry to determine frequency of blast cells. Average frequency±SD (n 6 per group). Note that this experiment used clinical dose (normal) or [Low]
Alternatively, a single injection on day 1 of 0.8 or 2.5 μg/g of DXR-loaded nanoparticles (NanoDXR) was given with and without chemotherapy. At 10 days post-treatment, BM was analyzed by flow cytometry to determine frequency of LSCs. Shown is average frequency±SD (n 6 per group).
Alternatively, a single injection on day 1 of 0.8 or 2.5 μg/g of DXR-loaded nanoparticles (NanoDXR) was given with and without chemotherapy. At 10 days post-treatment, BM was analyzed by flow cytometry to determine frequency of HSPCs. Shown is average frequency±SD (n 6 per group).
Whole bone marrow was isolated from uninduced HSC-SCL-Cre^+ Pten^fx/fx βcat^fx(Exon3)/+ (Pn:β-cat^Act) mice and combined with an equal portion of Cre negative bone marrow from a littermate and transplanted into irradiated (10 Grays) B6.SJL-Ptprc^a Pepc^b/BoyJ (Ptprc) recipients.
Chemotherapy for the animal model consisted of Nelarabine (Selleck) and Dexamethasone (BioVision) administered daily for 5 days consecutively. 43.4 mg/ml Nelarabine was administered intravenously via the tail vain according to the formula: Body Weight (g)×5=volume to inject (μl), which yielded 217 mg/kg. 2.5 mg/ml Dexamethasone was injected intraperitoneally according to the formula: Body Weight (g)×4=volume to inject (μl), yielding 10 mg/kg. […] [Low] NanoDXR treatment used doxorubicin nanoparticles (Tran et al. 2014) administered as a single IV injection once per week on day 1 relative to above treatments using 0.8 mg/kg. Maintenance [Low] NanoDXR consisted of once per week injections of 0.4 mg/kg. Groups combining Nelarabine with Doxorubicin used a single injection containing both drugs. All drugs were solubilized in 45% (2-Hydroxypropyl)-p-cyclodextrin (HBC) or 0.9% NaCl.
Cells were collected from bone marrow (femur and tibia), spleen, peripheral blood, and thymus. For cell surface phenotyping, a lineage cocktail (Lin) was used including CD3 (for HSPC but not LSC analysis), CD4, CD8, Mac-1, Gr, B220, IgM, and Ter119 (eBioscience, San Diego, CA). Monoclonal antibodies against CD3 (separate fluorophore for LSC analysis), Sca-1, c-Kit, CD45.1, and CD45.2 were also used where indicated. Cell sorting and analysis were performed using an inFlux (BD), MoFlo (Dako, Ft. Collins, CO) and/or CyAn ADP (Dako, Ft. Collins, CO). Data analysis was performed using FlowJo software (Ashland, OR).

[2] = test system: PD-L1, TIM-3 and CD24 on LSCs; assay: FACS of immune checkpoints on LSCs; assay type: in vivo, mouse; conditions: 3 days post-treatment
Source text: Frequency in BM (top) and frequency of the indicated immune checkpoint within the LSC population (bottom) are shown.

pS^552-β-catenin = assay: FACS for pS552-β-catenin in populations from treated leukemic mice; assay type: in vivo, mouse; conditions: [Low]DXR; 4 days post-treatment; LSCs
Description: Percent of LSC, HSPC or blast cell population expressing pS^552-β-catenin is indicated for each treatment. Numbers indicate mean±SD; n=3-5 per group.
For FACS analysis using PE-conjugated monoclonal anti-pS552-β-catenin antibody, cells were washed twice after cell surface staining, resuspended in 250ul of BD Fixation/Permeabilization® solution, incubated for 20 minutes at 4°, washed 2× with 1 ml of 1×BD Perm/Wash Buffer®, resuspended with 100 ul 1×BD Perm/Wash Buffer®, added […] anti-pS552-β-catenin antibody per 100 ul solution containing up to 3 million cells, incubated 2 hours on ice with rocking (resuspended every 15 minutes), washed 2 times and resuspended in PBS+2% FBS for analysis. BM from β-cat knockout mouse was harvested at 2-3 weeks post-knockout induction and stained alongside other test samples.

CD8^+ T cells = assay: FACS of peripheral blood CD8+ T cells in leukemic mice; assay type: in vivo, mouse; conditions: 48 hrs post-treatment
[3] = test system: LSCs and blast cells of leukemia mice; assay: Immune-checkpoint blocker treatment / CD8+ T cell depletion in leukemia mice; assay type: in vivo, mouse; conditions: [Low]DXR after anti-CD8 depletion
Description: For immune-checkpoint blocker treatment, 250 μg anti-PD-1 or isotype control (BioXcell) was injected intravenously every other day for a total of 3 injections. For CD8^+ T cell depletion, 2×100 μg and 1×250 μg of anti-CD8a or isotype control (BioXcell) was injected intravenously every other day.

[4] = test system: functional, tumorigenic LSCs; assay: Tumorigenic assay: BM of treated leukemic mice transplanted into NSG recipients; assay type: in vivo, mouse; conditions: [Low]DXR alone; nearly 6 months post-transplant
Description: At 12 days post-treatment, BM was harvested from treated mice and transplanted into sub-lethally irradiated NSG recipients. Treatment and transplantation schematic and Kaplan-Meier curves of recipient mice were shown. Red arrow indicates day 0 in survival curve.
The free [Low]DXR treatment group (solid line) from FIG. 5F is shown for comparison (n=30 per group).
Tumorigenic assays were performed by transplanting 0.5, 1.5, or 4.5×10^4 bone marrow cells from treated mice at 12 days post-treatment into 3.25 Gy irradiated NSG recipient mice. 10 recipients were used for each dose from each group. One male and one female donor was used for each group. Leukemia was assessed in mice euthanized due to poor health by analyzing CD45^HiCD^3+ cell frequency. Mice having >20% Blasts in the bone marrow were considered leukemic. NSG and Ptprc mice were originally obtained from The Jackson Laboratory.

HEK-TOP cell lines = assay: Cell Titer Glo cytotoxicity profile (CTG); conditions: concentration range as worded in the sentence
Description: Activity of compounds was tested against HEK-TOP cells vs. HEK FOP cells for inhibition of luciferase activity. The cytotoxicity profiles of the compounds were also tested using Cell Titer Glo assay (Promega) on HEK-TOP cell lines.

[5] = BM FACS 5 days post-treatment, DXR as [Low]DXR 5×0.5 mg/kg, chemotherapy = Nelarabine+Dexamethasone 5 days
[6] = clinical dose DXR 20 mg/kg alone

COc1cccc2c1C(=O)c1c(O)c3c(c(O)c1C2=O)C[C@@](O)(C(=O)CO)C[C@@H]3O[C@H]1C[C@H](N)[C@H](O)[C@H](C)O1 [DXR, doxorubicin]
effect on LSCs [1, 5]: significantly reduced
effect on blast cells [1, 5]: no significant effect
blast cell reduction when DXR substitutes for Nelarabine ([1]; [Low]DXR with Dexamethasone, 10 days post-treatment): did not significantly reduce blast cells
HSPC frequency versus vehicle alone [1, 6]: not significantly different
increase of LSC frequency among surviving cells [1, 6]: 5 fold
increase of blast cell frequency among surviving cells [1, 6]: < 2 fold
toxicity in terms of absolute cell number [1, 6]: broadly toxic to all cells
blast cell reduction when DXR substitutes for Nelarabine ([1]; clinical equivalent dose DXR (5×4 mg/kg daily) with Dexamethasone, 10 days post-treatment): could substitute for a DNA-damaging agent in their reduction
reduction of LSCs ([1]; free DXR, 5 doses of 0.15 μg/g, 10 days post-treatment): ineffective
LSC populations expressing PD-L1 and CD24 ([2]; [Low]DXR): reduced
TIM-3+ LSCs ([2]; [Low]DXR): reduced
LSC populations expressing PD-L1 and CD24 ([2]; clinical-dose DXR): this reduction was reversed
TIM-3+ LSCs ([2]; clinical-dose DXR): increased substantially
pS552-β-catenin expression (pS^552-β-catenin): substantially reduced
CD8+ T cells in peripheral blood (CD8^+ T cells; [Low]DXR): significant increase
CD8+ T cells in peripheral blood (CD8^+ T cells; clinical-dose DXR): significant reduction
effect on LSCs after CD8+ T cell depletion [3]: no longer significantly reduced LSCs
recipients that remained healthy [4]: 27/30
toxicity (CTG) (HEK-TOP cell lines): increased toxicity
